Experimental findings from patent publication US12557829B2, “Liquid-phase, supplementary feed composition containing coenzyme Q10” (priority 2021, dated 2026) are described below.

The nature of this data set: Single intravenous administration, plasma concentration of coenzyme Q10. As to conditions: rat, 6 mg/kg, rats. The data set is classed as in vivo. As to the method:
The supplementary feed composition containing coenzyme Q10 was orally administered to rats for 5 consecutive days, and systemic absorption was examined after oral administration on the 5th day. In addition, a single intravenous injection test was performed to evaluate the absorption rate (bioavailability).
Single Intravenous Administration Experiment
Plasma concentration measurement after intravenous coenzyme Q10 administration: dose (6 mg/kg), measured up to 6 hours
Plasma Collection after Intravenous Administration
After lightly anesthetizing the rats with ether, a polyethylene tube (PE-50, Intramedic, Clay Adams, USA) was intubated into the left femoral artery and vein. After the rats recovered from anesthesia, coenzyme Q10 was intravenously administered (6 mg/kg), and blood was collected from the left femoral artery at 0 (blank), 1, 5, 10, 15, 30, 60, 90, 120 and 180 minutes. 250 μl of blood was received in a microtube, and 100 μl of plasma obtained after centrifugation was used for quantification.
Quantification of the Concentration of Coenzyme Q10 in Plasma
For coenzyme Q10, a calibration curve was prepared in which a good linear relationship (R=0.999) was established in the concentration range of 0.05 μg/mL to 10 μg/mL. […] 100 μL of this was taken and quantified by the HPLC assay described above.

Read-outs that look alike come from different tables or passages of the source.

As to `COC1=C(OC)C(=O)C(C/C=C(\C)CC/C=C(\C)CC/C=C(\C)CC/C=C(\C)CC/C=C(\C)CC/C=C(\C)CC/C=C(\C)CC/C=C(\C)CC/C=C(\C)CCC=C(C)C)=C(C)C1=O` [coenzyme Q10, 2,3-dimethoxy-5-methyl-6-decaprenyl-1,4-benzoquinone], the half-life runs as follows: (read-out: half-life (t1/2,α) in the pre-distribution phase (α phase)) 3.3 min; (read-out: half-life (t1/2,β) in the post-distribution phase (β phase)) 52 min.
